# Laboratory results: US7217704B2, “LPA receptor agonists and antagonists and methods of use” (The University of Tennessee Research Foundation, priority 2003, dated 2007)
# Like-named read-outs stand apart in the source and are kept apart here.
# Columns and labels:
# LPA3 = target: T1, LPA3 (Homo sapiens, UniProt Q9UBY5); assay: Ca2+ transients (agonism / inhibition of LPA response) in RH7777 cells stably expressing LPA3; assay type: cell-based; conditions: for effect at LPA3 in words: Ca2+ transients
# T1 construct: expressed in transfected cells
# T1 sequence (Q9UBY5 1-353): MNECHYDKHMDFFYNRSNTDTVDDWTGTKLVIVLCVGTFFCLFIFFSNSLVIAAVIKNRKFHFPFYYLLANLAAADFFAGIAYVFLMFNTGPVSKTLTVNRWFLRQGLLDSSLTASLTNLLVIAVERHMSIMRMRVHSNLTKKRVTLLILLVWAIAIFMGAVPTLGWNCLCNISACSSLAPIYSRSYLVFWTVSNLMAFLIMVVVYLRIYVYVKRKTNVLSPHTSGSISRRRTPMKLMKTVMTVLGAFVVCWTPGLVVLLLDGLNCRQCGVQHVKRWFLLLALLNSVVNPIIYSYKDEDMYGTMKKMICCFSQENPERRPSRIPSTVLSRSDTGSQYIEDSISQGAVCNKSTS
# Description: (§1) The culture medium (DMEM containing 10% FBS) was then replaced with modified Krebs solution (120 mM NaCl, 5 mM KCl, 0.62 mM MgSO4, 1.8 mM CaCl2, 10 mM HEPES, 6 mM glucose, pH 7.4) and the cells were serum starved for 6–8 hours (12 h for PC-3 cells). Cells were loaded with Fura-2 AM for 35 minutes in modified Krebs medium. The Fura-2 was removed before loading the plate in the FlexStation instrument by replacing the medium once again with 100 μl modified Krebs medium/well. Plates were incubated for 4 minutes in the instrument to allow for warming to 37° C. Changes in intracellular Ca^2+ concentration were monitored by measuring the ratio of emitted light intensity at 520 nm in response to excitation by 340 nm and 380 nm wavelength lights, respectively. Each well was monitored for 80–120 seconds. […] Time courses were recorded using the SoftMax Pro software (Molecular Devices, Sunnyvale, Calif.). Ca^2+ transients were quantified automatically by calculating the difference between maximum and baseline ratio values for each well.
# (§2) Each FAP analog was tested for the ability to induce Ca^2+ transients in RH7777 cells transfected with LPA1-3 receptors (agonism), as well as the ability to inhibit LPAinduced Ca^2+ transients in the same cells (antagonism) (Table 3).
# LPA1 = target: T2, LPA1 (Homo sapiens, UniProt Q92633); assay: Ca2+ transients (agonism / inhibition of LPA response) in RH7777 cells stably expressing LPA1; assay type: cell-based; conditions: for effect at LPA1 in words: Ca2+ transients
# T2 construct: expressed in transfected cells
# T2 sequence (Q92633 whole entry): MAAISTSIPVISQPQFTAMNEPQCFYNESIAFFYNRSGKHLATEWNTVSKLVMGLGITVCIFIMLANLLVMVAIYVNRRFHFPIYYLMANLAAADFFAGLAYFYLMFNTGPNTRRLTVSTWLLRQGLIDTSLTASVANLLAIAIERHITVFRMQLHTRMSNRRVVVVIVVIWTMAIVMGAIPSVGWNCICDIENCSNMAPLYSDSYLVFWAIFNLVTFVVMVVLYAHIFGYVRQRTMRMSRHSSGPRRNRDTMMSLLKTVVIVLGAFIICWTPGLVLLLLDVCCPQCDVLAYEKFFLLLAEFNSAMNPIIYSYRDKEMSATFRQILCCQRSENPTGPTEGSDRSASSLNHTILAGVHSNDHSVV
# Description: as §1, §2
# PC-3 cells = assay: Ca2+ transients in PC-3 cells endogenously expressing LPA1-3; assay type: cell-based, human; conditions: for effect in PC-3 cells in words: Ca2+ transients; for Emax: PC-3, read-out: PC-3 (Emax)
# Description: as §1
# We tested the FAP analogs in PC-3 cells, which unlike the transfected RH7777 cells endogenously express LPA1-3 receptors.
# LPA2 = target: T3, LPA2 (Homo sapiens, UniProt Q9HBW0); assay: Ca2+ transients (agonism / inhibition of LPA response) in RH7777 cells stably expressing LPA2; assay type: cell-based
# T3 construct: expressed in transfected cells
# T3 sequence (Q9HBW0 whole entry): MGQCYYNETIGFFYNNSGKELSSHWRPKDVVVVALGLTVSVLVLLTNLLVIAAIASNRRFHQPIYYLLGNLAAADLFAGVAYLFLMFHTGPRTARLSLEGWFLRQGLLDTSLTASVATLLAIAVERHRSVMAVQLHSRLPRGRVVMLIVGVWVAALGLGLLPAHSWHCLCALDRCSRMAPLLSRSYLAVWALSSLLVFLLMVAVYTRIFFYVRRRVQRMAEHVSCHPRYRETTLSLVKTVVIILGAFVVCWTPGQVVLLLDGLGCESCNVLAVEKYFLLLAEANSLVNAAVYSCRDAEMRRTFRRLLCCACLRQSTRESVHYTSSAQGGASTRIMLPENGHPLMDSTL
# Description: as §1, §2
# [1] = inhibition of LPA-induced Ca2+ transients, RH7777 cells expressing LPA3, read-out: LPA3 (Ki)
# [2] = inhibition of LPA-induced Ca2+ transients, RH7777 cells expressing LPA3, read-out: LPA3 IC50
# [3] = Homo sapiens, PC-3, read-out: PC-3 IC50
# [4] = inhibition of LPA-induced Ca2+ transients, PC-3 cells
# [5] = induction of Ca2+ transients, RH7777 cells expressing LPA3, read-out: LPA3 EC50
# [6] = induction of Ca2+ transients, RH7777 cells expressing LPA1, read-out: LPA1 EC50
# [7] = inhibition of LPA-induced Ca2+ transients, RH7777 cells expressing LPA1, read-out: LPA1 IC50
# [8] = induction of Ca2+ transients, RH7777 cells expressing LPA2, read-out: LPA2 EC50
# [9] = inhibition of LPA-induced Ca2+ transients, RH7777 cells expressing LPA2, read-out: LPA2 IC50
# [10] = inhibition of LPA-induced Ca2+ transients, PC-3 cells, read-out: PC-3 IC50
Structure (SMILES),EC50 (LPA3) [µM],Ki (LPA3; [1]) [µM],IC50 (LPA3; [2]) [µM],EC50 (LPA1) [µM],IC50 (LPA1) [µM],IC50 (PC-3 cells; [3]) [µM],IC50 (LPA2) [µM],"Emax (LPA2; RH7777, read-out: LPA2 (Emax)) [%]",Ki (PC-3 cells; [4]) [µM],EC50 (LPA3; [5]) [µM],EC50 (LPA1; [6]) [µM],IC50 (LPA1; [7]) [µM],EC50 (LPA2; [8]) [µM],IC50 (LPA2; [9]) [µM],IC50 (PC-3 cells; [10]) [µM],also measured
"CCCCCCCCCCCCCCOP(O)(O)=S [Compound 8c, Thiophosphoric acid O-tetradecyl ester]",> 30,0.076,0.162,> 30,> 30,> 30,–,–,–,–,–,–,–,–,–,"EC50 (PC-3 cells; Homo sapiens, PC-3, read-out: PC-3 EC50): > 30 µM"
"C=CCCCCCCCCOP(O)(O)=S [Compound 8d, Thiophosphoric acid O-dec-9-enyl ester]",> 30,0.128,0.34,> 30,> 30,1,> 30,56,0.533,–,–,–,–,–,–,–
"CCC=CCCCCCCCCOP(O)(O)=S [Compound 8e, Thiophosphoric acid O-dodec-9-enyl ester]",> 30,–,–,> 30,> 30,2.97,> 30,100,1.46,–,–,–,–,–,–,IC50 (LPA3): 0.027 µM; Ki (LPA3): 0.014 µM; effect at LPA3 in words (LPA3; RH7777 cells expressing LPA3): equipotent antagonist as 8f; EC50 (LPA2): 0.677 µM; effect in PC-3 cells in words (PC-3 cells; PC-3 cells): both independent activation and inhibition of LPA-induced Ca^2+ transients; Emax (PC-3 cells; Homo sapiens): 27%
"CCCCC=CCCCCCCCCOP(O)(O)=S [Compound 8f, Thiophosphoric acid O-tetradec-9-enyl ester]",> 30,–,–,> 30,> 30,0.938,> 30,150,0.397,–,–,–,–,–,–,IC50 (LPA3): 0.028 µM; Ki (LPA3): 0.014 µM; effect at LPA1 in words (LPA1; RH7777 cells expressing LPA1): no effect on the LPA-induced Ca^2+ mobilization; EC50 (LPA2): 0.48 µM; effect in PC-3 cells in words (PC-3 cells; PC-3 cells): both independent activation and inhibition of LPA-induced Ca^2+ transients; Emax (PC-3 cells; Homo sapiens): 40%
"CCCCCCCCCCP(=O)(O)O [Compound 9a, n-decyl-phosphonate]",–,0.068,1.2,–,–,–,–,–,1.5,> 30,> 30,> 30,> 30,> 30,3.12,–
"CCCCCCCCCCCCP(=O)(O)O [Compound 9b, n-dodecyl-phosphonate]",–,0.303,0.654,–,–,–,–,–,1.27,> 30,> 30,> 30,> 30,> 30,2.64,–
"CCCCCCCCCCCCCCP(=O)(O)O [Compound 9c, n-tetradecyl-phosphonate]",–,1.12,3.1,–,–,–,–,–,4.62,> 30,> 30,~10,> 30,5.5,9.67,"effect at LPA3 in words (LPA3; RH7777 cells expressing LPA3): IC50 values in the micromolar range; effect at LPA1 in words (LPA1; RH7777 cells expressing LPA1): IC50 values in the micromolar range; effect at LPA2 in words (LPA2; Ca2+ transients, RH7777 cells expressing LPA2): IC50 values in the micromolar range; Ki (LPA2; inhibition of LPA-induced Ca2+ transients, RH7777 cells expressing LPA2): 3.55 µM"
"CCCCCCCCCCCCCCCCCCP(=O)(O)O [Compound 9d, n-octadecyl-phosphonate]",–,–,> 30,–,–,–,–,–,–,> 30,> 30,> 30,> 30,> 30,> 30,"EC50 (PC-3 cells; induction of Ca2+ transients, PC-3 cells, read-out: PC-3 EC50): > 30 µM"
"CCCCCCCCCCCCCCC(F)(F)P(=O)(O)O [Compound 11, (1,1-Difluoro-pentadecyl) Phosphonic Acid]",–,0.575,1.51,–,–,–,–,–,–,> 30,> 30,2.5,–,> 30,–,"Ki (LPA1; inhibition of LPA-induced Ca2+ transients, RH7777 cells expressing LPA1): 0.788 µM; inhibition of LPA response at LPA1 (partial antagonism) (LPA1; maximal inhibition): 40%; Emax (LPA2; RH7777, maximal efficacy of the drug/maximal efficacy of LPA 18:1, read-out: LPA2 (Emax)): 40%; EC50 (LPA2; RH7777 cells expressing LPA2, read-out: LPA2 EC50): 10 µM"
